Results as given in EP4725956A1, “MODIFIED POLYPEPTIDE AND USE THEREOF IN FIELD OF ANALGESIA” (Nanjing Anji Biotechnology Co., Ltd., priority 2023, dated 2024).
Positions of bridges follow the written chain, without caps; N, C: chain ends. Non-standard residues stand in square brackets, D forms with d. Residues, ends and D or L forms follow the SMILES beside them. Bip = N[C@@H](Cc1ccc(-c2ccccc2)cc1)C(=O)O; Hyp = O=C(O)[C@@H]1C[C@@H](O)CN1; Nle = CCCC[C@H](N)C(=O)O; Orn = NCCC[C@H](N)C(=O)O; Abu = CC[C@H](N)C(=O)O; Sar = CNCC(=O)O

Legend:
[1] = In vitro plasma stability and predicted half-life (HPLC main peak area, Example 3); type: in vitro ADME; conditions: human plasma (EDTA anticoagulant), 37°C, sampled up to 24 h, predicted half-life calculated with Winolin
Procedure: The modified peptides in this study were designed with non-natural amino acid substitutions at certain non-essential positions to enhance peptide stability and improve druggability. Peptides were dissolved in deionized water to 2 mg/mL, then diluted with acetonitrile to 1 mg/mL and filtered through an organic membrane. 200 µL of the filtrate was transferred to an LC vial as the peptide control. 300 µL of human plasma (comprising EDTA as anticoagulant, Nanjing Senbeijia Biotechnology Co., Ltd., Lot No. SBJ-P-HU011-100 mL) was mixed with 300 µL acetonitrile, centrifuged at 4°C and 12,000 rpm for 5 minutes. The supernatant was filtered through an organic membrane, and 200 µL of the filtrate was transferred to an LC vial as the plasma blank control. For peptide samples, 10 mg of peptide was weighed mixed with 5 mL of human plasma and vortexed thoroughly. 300 µL of peptide-containing plasma was mixed with 300 µL acetonitrile, centrifuged at 4°C and 12,000 rpm for 5 minutes, and the supernatant was filtered through an organic membrane. 200 µL of the filtrate was transferred to an LC vial as the 0 min sample. Peptide-containing plasma was incubated in a 37°C water bath, and samples at other time points were collected using the same procedure as the 0 min sample. For peptides AJ003 and AJ003-1, the sampling time points were 0 min, 5 min, 10 min, 20 min, 30 min, 1 h, 2 h, 4 h, 6 h, 10 h, 12 h, and 24 h. For modified peptides AJ003-34, AJ003-35, AJ003-36, AJ003-37, AJ003-38, AJ003-39, AJ003-40, AJ003-41, and AJ003-42, the time points were 0 min, 10 min, 30 min, 1 h, 4 h, 6 h, 10 h, 12 h, and 24 h. All peptide sample series were analyzed by HPLC, recording the changes in main peak areas over plasma incubation time. Predicted in vitro half-lives were calculated using the pharmacokinetic software Winolin. Due to the presence of tautomers, AJ003 peak areas were difficult to integrate accurately over time. AJ003-1 is an analog of AJ003 in which the threonine at position 5 is substituted with D-threonine; its sequence differs from AJ003 by only one amino acid configuration. […] The in vitro plasma half-lives of modified peptides AJ003-34, AJ003-35, AJ003-36, AJ003-37, AJ003-38, AJ003-39, AJ003-40, AJ003-41, and AJ003-42 were 61.9 h, 45.3 h, 65.3 h, 71.0 h, 26.7 h, 43.0 h, 84.0 h, 30.0 h, and 61.4 h, respectively.

[2] = molecular target: α7 nAChR (Homo sapiens, UniProt P36544); assay: BLI (biolayer interferometry) affinity of peptides to α7 nAChR; type: binding; set-up: inferred from the 'similar' procedure on NTA sensors; conditions: NTA sensor, α7 nAChR 20 µg/mL, peptide 1.372-1000 nM in PBS
From the text: BLI is a label-free technology that converts optical interference signals occurring on the surface of BLI biosensors into real-time response signals. By monitoring the molecular binding process in real time, the system determines association rate constants (ka or kon), dissociation rate constants (kd or koff), and initial binding rates, and calculates affinity (KD) by fitting analysis. Here are the specific procedures: NTA sensors (Sartorius) were placed in a pre-wetting tray, which was then positioned in a black 96-well plate with 200 µL PBS per well. The NTA sensors were pre-wetted for at least 15 minutes. The target protein α9 nAChR was diluted in PBS to 5 µg/mL, with 200 µL added per well. Test peptides were dissolved in PBS and serially diluted threefold, with concentrations from high to low as 1000 nM, 333.3 nM, 111.1 nM, 37.04 nM, 12.35 nM, 4.115 nM, and 1.372 nM, with an additional well with PBS only as a zeroconcentration control. After equilibrating the instrument baseline, the NTA sensor was used to immobilize the target protein α9 nAChR. Once immobilization was complete, the baseline was re-equilibrated, followed by a 5-minute association and a 5-minute dissociation phase. Affinity measurements of the test peptides were conducted sequentially using the above procedure. The procedure for measuring peptide affinity to α7 nAChR was similar, except that the α7 nAChR concentration was 20 µg/mL. Tables 2 and 3 show the BLI-determined affinities of alanine-scan peptide analogs with target proteins, which identified sites on the parent peptide suitable for modification. Subsequently, single-site non-natural amino acid substituted peptides were evaluated by BLI for target protein affinity. Finally, multi-site combinatorial modified peptides were measured for affinity by BLI, leading to the selection of high-affinity peptides for further screen and drug development potential. Table 2 Test Results for Affinity of Modified Peptides to α9 nAChR

Compound	half-life at 2 mg/mL [1]	Kd [2]
CC(C)C[C@H](NC(=O)[C@@H](NC(=O)[C@H]1CSSC[C@H](NC(=O)[C@H](CO)NC(=O)CN)C(=O)N[C@@H](CO)C(=O)N[C@H]([C@H](C)O)C(=O)N2CCC[C@H]2C(=O)N2CCC[C@H]2C(=O)N[C@@H](CO)C(=O)N1)C(C)C)C(=O)N[C@@H](Cc1ccc(O)cc1)C(=O)N[C@@H](CO)C(=O)O [AJ003-1, GSCS-(D-Thr)-PPS-(D-Cys)-VLYS (3,9 disulfide bond)] (H-GSCS[dT]PPS[dC]VLYS-OH; disulfide 3-9)	~10.8 h	–
CC(C)C[C@H](NC(=O)[C@@H](NC(=O)[C@H]1CSSC[C@H](NC(=O)[C@H](CO)NC(=O)CN)C(=O)N[C@@H](CO)C(=O)N[C@H]([C@H](C)O)C(=O)N2CCC[C@H]2C(=O)N2CCC[C@H]2C(=O)N[C@@H](CO)C(=O)N1)C(C)C)C(=O)N[C@@H](Cc1ccc(O)cc1)C(=O)N[C@@H](CO)C(N)=O [AJ003-4, GSCS-(D-Thr)-PPS-(D-Cys)-VLYS-NH2 (3,9 disulfide bond)] (H-GSCS[dT]PPS[dC]VLYS-NH2; disulfide 3-9)	–	339 nM
CC(C)C[C@H](NC(=O)[C@@H](NC(=O)[C@H]1CSSC[C@@H](NC(=O)[C@H](CO)NC(=O)CN)C(=O)N[C@@H](CO)C(=O)N[C@H]([C@H](C)O)C(=O)N2CCC[C@H]2C(=O)N2CCC[C@H]2C(=O)N[C@@H](CO)C(=O)N1)C(C)C)C(=O)N[C@@H](Cc1ccc(O)cc1)C(=O)N[C@@H](CO)C(=O)O [AJ003-5, GS-(D-Cys)-S-(D-Thr)-PPS-(D-Cys)-VLYS (3,9 disulfide bond)] (H-GS[dC]S[dT]PPS[dC]VLYS-OH; disulfide 3-9)	–	400 nM
CC(C)C[C@@H](NC(=O)[C@H](NC(=O)[C@H]1CSSC[C@@H](NC(=O)[C@@H](CO)NC(=O)CN)C(=O)N[C@H](CO)C(=O)N[C@H]([C@H](C)O)C(=O)N2CCC[C@@H]2C(=O)N2CCC[C@@H]2C(=O)N[C@H](CO)C(=O)N1)C(C)C)C(=O)N[C@H](Cc1ccc(O)cc1)C(=O)N[C@H](CO)C(=O)O [AJ003-6] (H-G[dS][dC][dS][dT][dP][dP][dS][dC][dV][dL][dY][dS]-OH; disulfide 3-9)	–	532 nM
CNCC(=O)N[C@@H](CO)C(=O)N[C@H]1CSSC[C@H](C(=O)N[C@H](C(=O)N[C@@H](CC(C)C)C(=O)N[C@@H](Cc2ccc(O)cc2)C(=O)N[C@@H](CO)C(=O)O)C(C)C)NC(=O)[C@H](CO)NC(=O)[C@@H]2CCCN2C(=O)[C@@H]2CCCN2C(=O)[C@@H]([C@H](C)O)NC(=O)[C@H](CO)NC1=O [AJ003-8, Sar-SCS-(D-Thr)-PPS-(D-Cys)-VLYS (3,9 disulfide bond)] (H-[Sar]SCS[dT]PPS[dC]VLYS-OH; disulfide 3-9)	–	6420 nM
CC[C@H](NC(=O)[C@@H](NC(=O)[C@H]1CSSC[C@H](NC(=O)[C@H](CO)NC(=O)CN)C(=O)N[C@@H](CO)C(=O)N[C@H]([C@H](C)O)C(=O)N2CCC[C@H]2C(=O)N2CCC[C@H]2C(=O)N[C@@H](CO)C(=O)N1)C(C)C)C(=O)N[C@@H](Cc1ccc(O)cc1)C(=O)N[C@@H](CO)C(=O)O [AJ003-28, GSCS-(D-Thr)-PPS-(D-Cys)-V-ABu-YS (3,9 disulfide bond)] (H-GSCS[dT]PPS[dC]V[Abu]YS-OH; disulfide 3-9)	–	690 nM
CCCC[C@H](NC(=O)[C@@H](NC(=O)[C@H]1CSSC[C@H](NC(=O)[C@H](CO)NC(=O)CN)C(=O)N[C@@H](CO)C(=O)N[C@H]([C@H](C)O)C(=O)N2CCC[C@H]2C(=O)N2CCC[C@H]2C(=O)N[C@@H](CO)C(=O)N1)C(C)C)C(=O)N[C@@H](Cc1ccc(O)cc1)C(=O)N[C@@H](CO)C(=O)O [AJ003-29, GSCS-(D-Thr)-PPS-(D-Cys)-V-Nle-YS (3,9 disulfide bond)] (H-GSCS[dT]PPS[dC]V[Nle]YS-OH; disulfide 3-9)	–	674 nM
CC(C)C[C@H](NC(=O)[C@@H](NC(=O)[C@H]1CSSC[C@H](NC(=O)[C@H](CO)NC(=O)CN)C(=O)N[C@@H](CO)C(=O)N[C@H]([C@H](C)O)C(=O)N2CCC[C@H]2C(=O)N2CCC[C@H]2C(=O)N[C@@H](CO)C(=O)N1)C(C)C)C(=O)N[C@@H](Cc1ccc(-c2ccccc2)cc1)C(=O)N[C@@H](CO)C(=O)O [AJ003-32, GSCS-(D-Thr)-PPS-(D-Cys)-VL-Bip-S (3,9 disulfide bond)] (H-GSCS[dT]PPS[dC]VL[Bip]S-OH; disulfide 3-9)	–	375 nM
CC(C)C[C@H](NC(=O)[C@@H](NC(=O)[C@H]1CSSC[C@H](NC(=O)[C@H](CO)NC(=O)CN)C(=O)N[C@@H](CO)C(=O)N[C@H]([C@H](C)O)C(=O)N2CCC[C@H]2C(=O)N2CCC[C@H]2C(=O)N[C@@H](CO)C(=O)N1)C(C)C)C(=O)N[C@@H](Cc1ccc(O)cc1)C(=O)N[C@@H](CCCN)C(N)=O [AJ003-33, GSCS-(D-Thr)-PPS-(D-Cys)-VLY-Orn-NH2 (3,9 disulfide bond)] (H-GSCS[dT]PPS[dC]VLY[Orn]-NH2; disulfide 3-9)	–	400 nM
CCCC[C@H](NC(=O)[C@@H](NC(=O)[C@H]1CSSC[C@H](NC(=O)[C@H](CO)NC(=O)CN)C(=O)N[C@@H](CO)C(=O)N[C@H]([C@H](C)O)C(=O)N2C[C@H](O)C[C@H]2C(=O)N2C[C@H](O)C[C@H]2C(=O)N[C@@H](C)C(=O)N1)C(C)C)C(=O)N[C@@H](Cc1ccc(-c2ccccc2)cc1)C(=O)N[C@@H](CCCN)C(N)=O [AJ003-35, GSCS-(D-Thr)-Hyp-Hyp-A-(D-Cys)-V-Nle-Bip-Orn-NH2 (3,9 disulfide bond)] (H-GSCS[dT][Hyp][Hyp]A[dC]V[Nle][Bip][Orn]-NH2; disulfide 3-9)	45.3 h	142 nM
CCCC[C@H](NC(=O)[C@@H](NC(=O)[C@H]1CSSC[C@H](NC(=O)[C@H](CO)NC(=O)CN)C(=O)N[C@@H](CO)C(=O)N[C@H]([C@H](C)O)C(=O)N2C[C@H](O)C[C@H]2C(=O)N2C[C@H](O)C[C@H]2C(=O)N[C@@H](CO)C(=O)N1)C(C)C)C(=O)N[C@@H](Cc1ccccc1)C(=O)N[C@@H](CCCN)C(N)=O [AJ003-37, GSCS-(D-Thr)-Hyp-Hyp-S-(D-Cys)-V-Nle-F-Orn-NH2 (3,9 disulfide bond)] (H-GSCS[dT][Hyp][Hyp]S[dC]V[Nle]F[Orn]-NH2; disulfide 3-9)	71 h	68.7 nM
CCCC[C@H](NC(=O)[C@@H](NC(=O)[C@H]1CSSC[C@H](NC(=O)[C@H](CO)NC(=O)CN)C(=O)N[C@@H](CO)C(=O)N[C@H]([C@H](C)O)C(=O)N2C[C@H](O)C[C@H]2C(=O)N2C[C@H](O)C[C@H]2C(=O)N[C@@H](C)C(=O)N1)C(C)C)C(=O)N[C@@H](Cc1ccccc1)C(=O)N[C@@H](CCCN)C(N)=O [AJ003-38, GSCS-(D-Thr)-Hyp-Hyp-A-(D-Cys)-V-Nle-F-Orn-NH2 (3,9 disulfide bond)] (H-GSCS[dT][Hyp][Hyp]A[dC]V[Nle]F[Orn]-NH2; disulfide 3-9)	26.7 h	187 nM
